Results: ChEMBL document CHEMBL1128720, “N-[(1-butyl-4-piperidinyl)methyl]-3,4dihydro-2H-[1,3]oxazino[3,2- a]indole10-carboxamide hydrochloride: the first potent and selective 5-HT4 receptor antagonist amide with oral activity” (J Med Chem, 1995)

Legend:
[1] = molecular target: 5-hydroxytryptamine receptor 4 (Cavia porcellus, UniProt O70528); experiment: Ability to antagonize 5-HT-evoked contractions mediated through 5-hydroxytryptamine 4 receptor activation in the guinea pig distal colon LMMP; assay type: tissue-based
Chain of 5-hydroxytryptamine receptor 4 (O70528 whole entry): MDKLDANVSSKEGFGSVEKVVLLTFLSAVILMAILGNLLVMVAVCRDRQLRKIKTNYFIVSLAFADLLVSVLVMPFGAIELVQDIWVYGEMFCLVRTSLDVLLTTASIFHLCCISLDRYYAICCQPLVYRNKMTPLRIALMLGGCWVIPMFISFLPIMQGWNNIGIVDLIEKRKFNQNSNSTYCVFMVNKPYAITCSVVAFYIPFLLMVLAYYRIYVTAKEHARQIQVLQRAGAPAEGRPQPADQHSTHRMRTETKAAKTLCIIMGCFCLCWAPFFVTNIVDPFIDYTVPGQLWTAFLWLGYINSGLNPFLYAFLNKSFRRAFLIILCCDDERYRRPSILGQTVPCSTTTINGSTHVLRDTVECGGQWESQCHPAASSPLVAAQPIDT

[2] = molecular target: T1, 5-hydroxytryptamine receptor 1A (Homo sapiens, UniProt P08908); experiment: Binding affinity was determined against 5-hydroxytryptamine 1A receptor; set-up: species or system Cavia porcellus
T1 sequence (P08908 whole entry): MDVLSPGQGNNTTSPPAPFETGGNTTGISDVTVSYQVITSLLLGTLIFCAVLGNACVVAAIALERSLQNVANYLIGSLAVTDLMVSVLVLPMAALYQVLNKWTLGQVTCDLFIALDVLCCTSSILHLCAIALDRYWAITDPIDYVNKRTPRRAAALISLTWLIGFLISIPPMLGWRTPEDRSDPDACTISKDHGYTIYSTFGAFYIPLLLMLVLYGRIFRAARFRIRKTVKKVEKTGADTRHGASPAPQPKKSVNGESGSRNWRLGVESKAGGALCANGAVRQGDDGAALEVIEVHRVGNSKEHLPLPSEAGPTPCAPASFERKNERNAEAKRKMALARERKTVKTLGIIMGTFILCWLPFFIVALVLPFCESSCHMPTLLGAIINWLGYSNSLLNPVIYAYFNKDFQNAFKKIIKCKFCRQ

[3] = (§1) Binding affinity was determined against 5-hydroxytryptamine 2A receptor; set-up: species or system Cavia porcellus
[4] = molecular target: 5-hydroxytryptamine receptor 2A (Homo sapiens, UniProt P28223); experiment: as §1; set-up: species or system Cavia porcellus
Chain of 5-hydroxytryptamine receptor 2A (P28223 whole entry): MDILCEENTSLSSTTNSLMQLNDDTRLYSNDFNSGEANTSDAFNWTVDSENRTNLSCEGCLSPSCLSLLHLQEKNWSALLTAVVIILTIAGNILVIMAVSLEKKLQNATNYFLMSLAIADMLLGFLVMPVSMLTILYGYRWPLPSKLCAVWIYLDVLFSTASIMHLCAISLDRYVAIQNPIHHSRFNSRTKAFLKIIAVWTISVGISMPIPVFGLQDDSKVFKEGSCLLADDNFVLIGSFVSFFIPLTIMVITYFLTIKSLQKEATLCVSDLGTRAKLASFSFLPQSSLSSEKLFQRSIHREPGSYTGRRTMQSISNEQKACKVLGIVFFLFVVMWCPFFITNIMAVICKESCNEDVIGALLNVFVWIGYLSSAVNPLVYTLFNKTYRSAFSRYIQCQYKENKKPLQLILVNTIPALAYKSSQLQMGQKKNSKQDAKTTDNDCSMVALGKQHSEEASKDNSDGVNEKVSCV

D(3) dopamine receptor = D(3) dopamine receptor (Homo sapiens, UniProt P35462); experiment: Binding affinity was determined against Dopamine receptor D3 determined using cloned human receptors expressed in CHO cells radiolabeled with [125I]- iodosulpride; assay type: cell-based
Chain of D(3) dopamine receptor (P35462 whole entry): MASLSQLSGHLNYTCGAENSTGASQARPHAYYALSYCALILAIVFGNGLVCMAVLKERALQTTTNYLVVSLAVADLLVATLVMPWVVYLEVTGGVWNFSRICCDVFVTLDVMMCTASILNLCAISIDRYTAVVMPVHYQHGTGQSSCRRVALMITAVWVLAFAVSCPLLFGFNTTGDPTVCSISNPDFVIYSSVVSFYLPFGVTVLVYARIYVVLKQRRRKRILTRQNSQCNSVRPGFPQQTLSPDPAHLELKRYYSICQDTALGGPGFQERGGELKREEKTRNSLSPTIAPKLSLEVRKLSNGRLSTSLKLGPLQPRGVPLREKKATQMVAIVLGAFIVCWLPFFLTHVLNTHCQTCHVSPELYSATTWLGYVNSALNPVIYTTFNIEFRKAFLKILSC

Histamine H1 receptor = Histamine H1 receptor (Cavia porcellus, UniProt P31389); experiment: Binding affinity was determined against H1 receptor
Chain of Histamine H1 receptor (P31389 whole entry): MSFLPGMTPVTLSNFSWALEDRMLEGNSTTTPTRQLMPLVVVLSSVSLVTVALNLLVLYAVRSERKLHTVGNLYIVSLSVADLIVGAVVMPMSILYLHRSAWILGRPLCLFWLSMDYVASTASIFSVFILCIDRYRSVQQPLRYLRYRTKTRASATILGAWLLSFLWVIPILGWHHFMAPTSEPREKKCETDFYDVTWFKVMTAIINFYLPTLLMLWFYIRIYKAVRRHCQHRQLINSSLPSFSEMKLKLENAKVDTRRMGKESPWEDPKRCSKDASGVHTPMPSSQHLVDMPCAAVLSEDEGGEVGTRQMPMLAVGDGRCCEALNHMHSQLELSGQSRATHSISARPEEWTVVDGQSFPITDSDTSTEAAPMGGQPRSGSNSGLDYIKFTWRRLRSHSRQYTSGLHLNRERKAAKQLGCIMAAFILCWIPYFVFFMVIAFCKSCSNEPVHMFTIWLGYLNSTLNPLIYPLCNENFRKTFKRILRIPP

[5] = Binding affinity was determined against 5-hydroxytryptamine 1D receptor
D(2) dopamine receptor = D(2) dopamine receptor (Homo sapiens, UniProt P14416); experiment: Binding affinity was determined by standard competitive displacement of [125I]iodosulpride using Dopamine receptor D2 cloned human receptors expressed in CHO cells
Chain of D(2) dopamine receptor (P14416 whole entry): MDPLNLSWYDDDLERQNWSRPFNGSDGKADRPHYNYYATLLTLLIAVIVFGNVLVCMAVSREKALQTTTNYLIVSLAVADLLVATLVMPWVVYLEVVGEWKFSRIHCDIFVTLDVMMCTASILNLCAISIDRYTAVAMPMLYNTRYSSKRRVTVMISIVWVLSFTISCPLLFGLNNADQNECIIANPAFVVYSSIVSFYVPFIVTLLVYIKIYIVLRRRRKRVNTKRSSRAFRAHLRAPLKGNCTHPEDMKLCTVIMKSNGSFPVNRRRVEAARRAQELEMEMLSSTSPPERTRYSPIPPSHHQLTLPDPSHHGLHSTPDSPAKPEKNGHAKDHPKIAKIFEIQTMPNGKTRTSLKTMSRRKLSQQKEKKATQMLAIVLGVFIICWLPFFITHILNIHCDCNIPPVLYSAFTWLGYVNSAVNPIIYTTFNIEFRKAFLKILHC

Compound `CCCCN1CCC(CNC(=O)c2c(OC)[nH]c3ccccc23)CC1` has an IC50 [1] of 79.4 nM.

For `CCCCN1CCC(CNC(=O)c2c3n(c4ccccc24)CCCO3)CC1` [PIBOSEROD], the Ki [2] was over 10000 nM, the Log Ki [3] was over -6 and the Ki [4] was over 1000 nM. It also gave a Ki (D(3) dopamine receptor) of over 1000 nM, a Ki (Histamine H1 receptor) of over 1000 nM and a Ki [5] of over 10000 nM. The Ki (D(2) dopamine receptor) was over 1000 nM.

`CCCCN1CCC(CNC(=O)c2c3n(c4ccccc24)CCO3)CC1` showed an IC50 [1] of 15.8 nM.

In the case of `CCCCN1CCC(COC(=O)c2c(OC)[nH]c3ccccc23)CC1`, the IC50 [1] is reported as 0.1 nM.

Work on `CCCCN1CCC(CNC(=O)c2c[nH]c3ccccc23)CC1` yielded an IC50 [1] of 200 nM.

Work on `CCCCN1CCC(CNC(=O)c2c3n(c4ccccc24)CCCCO3)CC1` yielded an IC50 [1] of 7.94 nM.
